Where two headings read alike, the source gives them in different places.
What was measured:
human erythrocytes = settings: 80 μg/L, AAPH 50 mmol/L
Experimental: The blood samples were centrifuged (3000 rpm, 10 min, 20 °C, Micro 22 R centrifuge, Hettich Zentrifugen, Tuttlingen, Germany) to separate erythrocytes from the plasma and washed three times with 0.9% saline (NaCl). […] The erythrocytes were suspended in 0.9% saline. As control of basal hemolysis, erythrocytes were incubated with 0.9% NaCl. For total hemolysis control erythrocytes were incubated with 2.0% v/v Triton X-100. Incubation with Triton X-100 and K4[Fe(CN)6] (at concentration 50 g/L) was performed to control methemoglobin (MetHb) formation. Moreover, an antioxidant control containing ascorbic acid (AA) at a concentration of 10 µg/mL was prepared, while AAPH at a concentration of 50 mmol/L was an oxidizing agent. Antipsychotics at concentrations equaling their maximum therapeutic plasma concentrations (TPCmax), as well as 5-fold higher (5 × TPCmax) and 5-fold lower than TPCmax (1/5 × TPCmax), and the oxidizing agent AAPH at a concentration of 50 mmol/L, were added to 2% RBC suspension. Controls and tested samples were incubated at 37 °C. […] The percentage of hemolysis was calculated with the following formula:Hemolysis (%) = (Asample/Atotal hemolysis) × 100%(1) where Asample—absorbance of the test sample; Atotal hemolysis—the absorbance of the reference sample with 2% Triton X solution, corresponding to complete hemolysis.

HUVEC cells = experiment: WST-1 viability under AAPH-induced oxidative stress, HUVEC; assay type: cell-based, human; settings: AAPH 17.5 mmol/L, relative to pure medium control
Experimental: WST-1 assay (Takara, Takara Bio Europe, Saint-Germain-en-Laye, France) was used to assess the effects of antipsychotics on the growth of HUVEC and astrocytes. The experiments were conducted as described previously. HUVEC were seeded at a density of 7500 cells, and astrocytes at 5000 cells per well on 96-well microplates and cultured for 24 h followed by treatment with compounds at ½ × TPCmax and TPCmax or pure medium as a control (v = 100 μL) for another 24 h (37 °C, 5% CO2). Subsequently, the cells were washed with culture medium (100 μL) and WST-1 reagent diluted in medium (10 μL of reagent + 90 μL of medium) was added. The plates were incubated at 37 °C in 5% CO2 for another 90 min for HUVEC and 60 min for astrocytes. The absorbance was read at 450 nm using a microplate reader (iMARK, Bio-Rad, Hercules, CA, USA). The cells viability was expressed as a percentage of the control samples which constituted 100% viability.
Moreover, the WST-1 assay was used to evaluate potential protective effects of antipsychotics on the growth of HUVEC and astrocytes under conditions of AAPH-induced oxidative stress. The experimental conditions were the same as in viability studies. AA at the final concentration of 10 μg/mL was used as an antioxidant control. After reaching the confluence, the antipsychotics were added at concentrations equaling ½ × TPCmax and TPCmax. After 1 h incubation under standard conditions, 50 μL AAPH was added to the wells containing tested compounds or AA. The AAPH concentration was chosen on the basis of preliminary experiments—17.5 mmol/L in HUVEC experiments, and 15.0 mmol/L in the case of astrocytes.

Which “RBCs hemolysis with AAPH” value (human erythrocytes; 5 h, AAPH control 53.4%) does the source give for `OCCOCCN1CCN(C2=Nc3ccccc3Sc3ccccc32)CC1` [Quetiapine, quetiapine] here?
Its value is 23.9%.

What about the “RBCs hemolysis with AAPH” value (human erythrocytes; 24 h, AAPH control 45.9%) of the same compound?
Its value is 51.9%.

And the “viability of HUVEC under AAPH” value (HUVEC cells; TPC (bromperidol 25 μg/L, quetiapine 400 μg/L))?
The value was 74.9%.

And the “viability of HUVEC under AAPH” value (HUVEC cells; ½ × TPC (bromperidol 12.5 μg/L, quetiapine 200 μg/L))?
Its value is 66.8%.

Source: PMC9102502, “The Influence of Selected Antipsychotic Drugs on Biochemical Aspects of Alzheimer’s Disease” (International Journal of Molecular Sciences, 2022)
